{
  "source": "patent US8501981B2",
  "about": "“CXCR2 inhibitors” (SANOFI, priority 2006, dated 2013)",
  "data": [
    {"target": "human CXCR2 (Homo sapiens (Human), UniProt P25025)", "sequence (P25025 whole entry)": "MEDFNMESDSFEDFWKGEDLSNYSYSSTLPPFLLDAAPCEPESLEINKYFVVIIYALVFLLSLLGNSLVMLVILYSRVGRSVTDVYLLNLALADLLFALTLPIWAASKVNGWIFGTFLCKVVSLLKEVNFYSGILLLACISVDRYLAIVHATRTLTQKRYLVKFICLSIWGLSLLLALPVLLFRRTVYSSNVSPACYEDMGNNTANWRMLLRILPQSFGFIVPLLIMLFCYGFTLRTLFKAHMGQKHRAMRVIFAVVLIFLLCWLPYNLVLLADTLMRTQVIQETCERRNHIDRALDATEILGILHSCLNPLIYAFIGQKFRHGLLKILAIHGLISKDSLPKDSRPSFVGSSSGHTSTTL", "experiment": "Determination of CXCR2 inhibition: Calcium Fluorescence Assay (FLIPR)", "format": "cell-based", "settings": "chemokine IL-8; CHO-K1 cells stably transfected with human CXCR2 and Gα16", "description": "Determination of CXCR2 inhibition: Calcium Fluorescence Assay (FLIPR)\nThe assay is based on the detection of intracellular calcium changes detected by the selective, calcium-chelating dye, Fluo-4 (Molecular Probes). A large fluorescence intensity increase is observed upon calcium association with Fluo-4. […] By co-expressing the CXCR2 receptor and the promiscuous Gα16 protein, activation of this chemokine receptor is directed into this phospholipase C cascade resulting in intracellular calcium mobilization.\nThe CHO—K1 cells stably transfected with human CXCR2 and the promiscuous Gα16 protein were maintained in a log phase of growth at 37° C. and 5% CO2 in the following media: Iscove's, 10% FBS, 1× Penicillin-Streptomycin, 400 μg/mL g418 and 350 μg/mL Zeocin. Approximately 24-48 hours prior to the assay, 20,000-30,000 cells/well were plated onto a 96-well black/clear bottomed assay plate (Becton Dickinson) with a well volume of 180 μl. For dye-loading the culture medium was carefully removed and replaced by 100 μl/well dye solution (4 μM Fluo-4 in 135 mM NaCl, 5 mM KCl, 1 mM magnesium sulphate, 5 mM glucose, 20 mM hepes, 2.5 mM probenecid; pH 7.4). Cells were incubated for 1 h at 37° C., and then washed 3× with buffer. After washing 90 μl buffer/well were left. Increasing concentrations of compound was added in 45 μl buffer (4× concentrated) followed by 10 min incubation at 37° C. Then the chemokine (10-100 nM) was applied in 45 μl buffer (4× concentrated) and the measurement performed for 2 min. The IC50 value of a compound was determined by calculation of % inhibition of total calcium response to the chemokine.", "units": {"IC50": "µM"}, "values": [
      {"smiles": "CC(C)(NC(=O)c1ccc2ccccc2c1OCCc1ccccc1)C(=O)O", "note": "[Example 126, 2-Methyl-2-[(1-phenethyloxy-naphthalene-2-carbonyl)-amino]-propionic acid]", "IC50": "< 10"},
      {"smiles": "CCCCC(CC)(NC(=O)c1ccc2ccccc2c1OCCOc1ccccc1)C(=O)O", "note": "(centres unmarked) [Example 117, 2-Ethyl-2-{[1-(2-phenoxy-ethoxy)-naphthalene-2-carbonyl]-amino}-hexanoic acid]", "IC50": "< 10"},
      {"smiles": "O=C(NC1(C(=O)O)CCC1)c1ccc2ccccc2c1OCCCc1ccccc1", "note": "[Example 99, 1-{[1-(3-Phenyl-propoxy)-naphthalene-2-carbonyl]-amino}-cyclobutanecarboxylic acid]", "IC50": "< 10"},
      {"smiles": "O=C(NC1(C(=O)O)CCC1)c1ccc2ccccc2c1OCCOc1ccccc1", "note": "[Example 100]", "IC50": "< 10"},
      {"smiles": "CC(C)(NC(=O)c1ccc2ccccc2c1C#CCOc1ccccc1)C(=O)O", "note": "[Example 165, 2-Methyl-2-{[1-(3-phenoxy-prop-1-ynyl)-naphthalene-2-carbonyl]-amino}-propionic acid]", "IC50": "< 10"},
      {"smiles": "CC(CCc1ccccc1)Oc1c(C(=O)NC2(C(=O)O)CCCC2)ccc2ccccc12", "note": "(centres unmarked) [Example 52, 1-{[1-(1-Methyl-3-phenyl-propoxy)-naphthalene-2-carbonyl]-amino}-cyclopentanecarboxylic acid]", "IC50": 0.92},
      {"smiles": "CC(C)CC(C)(NC(=O)c1ccc2ccccc2c1OCCOc1ccccc1)C(=O)O", "note": "(centres unmarked) [Example 55, 2,4-Dimethyl-2-{[1-(2-phenoxy-ethoxy)-naphthalene-2-carbonyl]-amino}-pentanoic acid]", "IC50": 2.56},
      {"smiles": "CC(C)(NC(=O)c1ccc2ccccc2c1OCCOc1ccc(F)c(Cl)c1)C(=O)O", "note": "[Example 73, 2-({1-[2-(3-Chloro-4-fluoro-phenoxy)-ethoxy]-naphthalene-2-carbonyl}-amino)-2-methyl-propionic acid]", "IC50": 1.25},
      {"smiles": "CC(C)(NC(=O)c1cc(F)c2ccccc2c1OCCOc1ccccc1)C(=O)O", "note": "[Example 20, 2-{[4-Fluoro-1-(2-phenoxy-ethoxy)-naphthalene-2-carbonyl]-amino}-2-methyl-propionic acid]", "IC50": "< 10"},
      {"smiles": "CCCCC(CC)(NC(=O)c1ccc2ccccc2c1OCCCc1ccccc1)C(=O)O", "note": "(centres unmarked) [Example 116, 2-Ethyl-2-{[1-(3-phenyl-propoxy)-naphthalene-2-carbonyl]-amino}-hexanoic acid]", "IC50": "< 10"},
      {"smiles": "CC(C)(NC(=O)c1ccc2ccccc2c1C#CCCCc1ccccc1)C(=O)O", "note": "[Example 166, 2-Methyl-2-{[1-(5-phenyl-pent-1-ynyl)-naphthalene-2-carbonyl]-amino}-propionic acid]", "IC50": 1.67},
      {"smiles": "CC(CCc1ccccc1)Oc1c(C(=O)NC(C)(C)C(=O)O)ccc2ccccc12", "note": "(centres unmarked) [Example 140, 2-Methyl-2-{[1-(1-methyl-3-phenyl-propoxy)-naphthalene-2-carbonyl]-amino}-propionic acid]", "IC50": "< 10"},
      {"smiles": "CC(C)(NC(=O)c1ccc2ccccc2c1OCCCc1ccc(Cl)cc1)C(=O)O", "note": "[Example 106, 2-({1-[3-(4-Chloro-phenyl)-propoxy]-naphthalene-2-carbonyl}-amino)-2-methyl-propionic acid]", "IC50": "< 10"},
      {"smiles": "O=C(NC1(C(=O)O)CCC1)c1ccc2ccccc2c1OCCC1CCCCC1", "note": "[Example 97, 1-{[1-(2-Cyclohexyl-ethoxy)-naphthalene-2-carbonyl]-amino}-cyclobutanecarboxylic acid]", "IC50": "< 10"},
      {"smiles": "C[C@@H](NC(=O)c1ccc2ccccc2c1OCCc1ccc(F)cc1)C(=O)O", "note": "[Example 130, (R)-2-({1-[2-(4-Fluoro-phenyl)-ethoxy]-naphthalene-2-carbonyl}-amino)-propionic acid]", "IC50": "< 10"},
      {"smiles": "O=C(NC1(C(=O)O)CCC1)c1ccc2ccccc2c1OCCOc1ccc(F)cc1", "note": "[Example 105, 1-({1-[2-(4-Fluoro-phenoxy)-ethoxy]-naphthalene-2-carbonyl}-amino)-cyclobutanecarboxylic acid]", "IC50": 3.23},
      {"smiles": "CC(C)(NC(=O)c1cc(F)c2ccccc2c1OCCCc1ccccc1)C(=O)O", "note": "[Example 18, 2-{[4-Fluoro-1-(3-phenyl-propoxy)-naphthalene-2-carbonyl]-amino}-2-methyl-propionic acid]", "IC50": "< 10"},
      {"smiles": "CC(C)(NC(=O)c1cc(F)c2ccccc2c1OCCc1ccccc1)C(=O)O", "note": "[Example 17, 2-[(4-Fluoro-1-phenethyloxy-naphthalene-2-carbonyl)-amino]-2-methyl-propionic acid]", "IC50": "< 10"},
      {"smiles": "CCCCC(CC)(NC(=O)c1ccc2ccccc2c1OCCCC1CCCCC1)C(=O)O", "note": "(centres unmarked) [Example 119, 2-{[1-(3-Cyclohexyl-propoxy)-naphthalene-2-carbonyl]-amino}-2-ethyl-hexanoic acid]", "IC50": "< 10"},
      {"smiles": "CC(C)(NC(=O)c1sc2ccccc2c1OCCOc1ccccc1)C(=O)O", "note": "[Example 46, 2-Methyl-2-{[3-(2-phenoxy-ethoxy)-benzo[b]thiophene-2-carbonyl]-amino}-propionic acid]", "IC50": 1.76}
    ]}
  ]
}
